Patent US20260234217A1, “USE OF BMP RECEPTOR ALK1 INHIBITORS IN OSTEOARTHRITIS THERAPIES” (The Regents of the University of California, priority 2023, published 2026)

How the values were obtained:
[1] = system: osteophytes in the DMM joint; assay: Micro-CT total knee osteophyte volume in DMM mice; format: in vivo, mouse
Procedure: (§1) Mice (C57BL/6J) were purchased from The Jackson Laboratory. All mice were housed on a 12-hour light/dark cycle with unrestricted access to standard mouse food and water. The DMM model of injury induced OA was performed on mice at 12 weeks of age by opening the joint capsule and transecting the medial meniscotibial ligament in the right knee, destabilizing the medial meniscus(48). A sham operation was performed on the left knee of each mouse by observing the medial meniscotibial ligament but not transecting it. Mice were administered carprofen 5 mg/kg (Zoetis; 1041283) subcutaneously 30 minutes prior to surgery, immediately post-surgery, and 24 hours post-surgery to minimize pain.
(§2) Treatments were initiated either 1 day after DMM surgery once a week for 8 weeks, or 1 month after DMM surgery twice a week for 4 weeks. Mice were sacrificed at 20 weeks of age (2 months after surgery). To understand the level of articular cartilage damage 1 month after DMM surgery, a cohort of mice was sacrificed at 16 weeks old (FIG. 4).
Dissected knee joints underwent Micro-CT analysis using the Skyscan 1172 in vivo μCT scanner (Bruker micro-CT, Kontich, Belgium) at 55 kV and 181 μA, with a resolution of 10 μm. […] Average osteophyte volume was analyzed with Prism 9 Software (GraphPad) using two-way ANOVA and Tukey's multiple comparisons test post-hoc. […]

[2] = system: OA associated pain in DMM mice; assay: Von Frey pain assessment (50% paw withdrawal threshold) in DMM mice; format: in vivo, mouse
Procedure: In a functional assessment of BMP-KI and ALK1-Fc, we measured pain and sensitivity in mice following DMM surgery and treatment with BMP-KI and ALK1-Fc using Von Frey analysis. Mice underwent DMM surgery at 3 months of age and were treated with BMP-KI or ALK1Fc once a week for 8 weeks following surgery. Mice underwent Von Frey testing immediately prior to surgery, and each week following surgery. Von Frey testing involved exposure of the injured limb hindfoot plantar surface to a monofilament of a designated caliber (measured in grams). […] The 50% PWT was then calculated mathematically as previously described(54). A higher 50% paw withdrawal threshold indicates less sensitivity in the surgically treated limb. Mice undergoing sham surgery were also tested as a control.
Pain was assessed using the 50% paw withdrawal threshold (PWT) using Von Frey filaments and the up-and-down method as described(86, 87). Each mouse was tested three times by evaluators blinded to treatment group, and the average value was calculated. Whether or not each of the three acquired values is normal is based on the Jarque-Baera test. 4-5 mice were analyzed per treatment condition. Significance was assessed using two-way ANOVA and Tuckey's multiple comparisons test.

[3] = system: articular cartilage of DMM mice; assay: DMM model of post-traumatic OA: Safranin-O/Fast Green staining and OARSI scoring of articular cartilage damage; format: in vivo, mouse; settings: for articular cartilage damage (SOFG staining, OARSI scoring): treatment from the time of DMM surgery, weekly, compared to PBS
Procedure: FIG. 13. Growth differentiation factor 11 (GDF11, see, e.g., NCBI Reference Sequence: NP_005802.1) competes with BMP9/10 for binding to BMP type II receptors ACVRIIA or ACVRIIB, thereby preventing the association of BMP type I receptor ALK1 with ACVRIIA/B and decreasing BMP signaling. […] We tested this hypothesis by locally injecting GDF11 (50 ng/dose) into the knee joint space at mice with established post-traumatic OA. (A) Experimental Outline (B) Safranin-O/Fast Green (SOFG) Staining of sagittal sections of the knee joint, femur (top) and tibia (bottom) for proteoglycan (cartilage; red) and bone (green) at week 8 after DMM or Sham surgery. Mice were treated with either GDF11, or Phosphate Buffered Saline (PBS) after received surgery (n=5/group). 4-Week DMM mice were sacrificed 4 weeks after surgery and received no treatment (n=6). AC damage indicated by dotted line. (C-D) Osteoarthritis Research Society International (OARSI) scoring of AC damage in the (C) medial tibial plateau and (D) medial femoral condyle in representative sections of each treatment at week 4 or 8 after surgery. All data are shown as mean bar+/−standard deviation *p<0.05. Data analysis performed was one-way ANOVA. Scale 250 uM.
as §1, §2
(§3) Knee joint samples were harvested and fixed in 4% Paraformaldehyde for 3 days, and subsequently decalcified in formic acid (Statlab; 1414-32) for 3 days and embedded in paraffin. Sagittal sections 7 micrometers in thickness were taken and stained using Safranin-O (Sigma-Aldrich; S8884-25G), fast green (Sigma-Aldrich; F7258-25G), and hematoxylin (Fisherbrand; 245-656) using a standard histology protocol. Images were taken with the Olympus BX60 brightfield microscope using a 10× objective lens. Representative sections throughout the medial and lateral portion of side were chosen for histological analysis, resulting in 5 sections being imaged for both portions of the joint.
The 10 total sections per joint chosen for histology received randomized sample numbers and were given to three independent researchers who scored the level of cartilage damage based on OARSI guidelines (84). OARSI scores were analyzed with Prism 9 Software (GraphPad) using two-way ANOVA and Tukey's multiple comparisons test post-hoc. Scoring was performed by at least three experienced investigators blinded to treatment/genotype. Scores were averaged for the medial tibial plateau, medial femoral condyle, lateral tibial plateau, and lateral femoral condyle for each sample.

ALK3 [4] = target: T1, ALK3 (Homo sapiens, UniProt P36894); assay: kinase assay (biochemical IC50, literature); settings: concentration of 200 nM
T1 sequence (P36894 24-532, species assumed): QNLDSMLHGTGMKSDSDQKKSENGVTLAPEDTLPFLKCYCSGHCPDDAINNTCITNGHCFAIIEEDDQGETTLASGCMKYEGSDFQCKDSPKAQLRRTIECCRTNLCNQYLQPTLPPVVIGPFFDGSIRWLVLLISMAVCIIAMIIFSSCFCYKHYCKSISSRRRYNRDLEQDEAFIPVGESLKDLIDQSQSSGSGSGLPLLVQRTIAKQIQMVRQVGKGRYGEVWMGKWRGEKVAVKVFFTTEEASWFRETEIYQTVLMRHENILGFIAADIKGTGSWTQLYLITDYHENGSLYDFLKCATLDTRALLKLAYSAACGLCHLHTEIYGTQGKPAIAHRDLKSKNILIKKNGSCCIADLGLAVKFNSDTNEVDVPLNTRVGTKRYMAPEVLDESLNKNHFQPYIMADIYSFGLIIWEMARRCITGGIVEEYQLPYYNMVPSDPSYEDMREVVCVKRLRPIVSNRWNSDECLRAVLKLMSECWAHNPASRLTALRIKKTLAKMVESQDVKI

adult growth plate = assay: SOFG histology of proximal tibial growth plate in DMM mice; format: in vivo, mouse; settings: week 8 after DMM surgery
Excerpt: FIG. 10. […] Sagittal sections of the proximal tibial growth plate were stained with Safranin-O/Fast Green (SOFG) to visualize proteoglycan (red) in the growth plate, subchondral bone (top blue), and trabecular bone (bottom blue) at week 8 after DMM or Sham surgery. […] Alk1^Col2 mice underwent DMM surgery (DMM+Alk1^Col2). WT control mice (lacking Col2a1-Cre) underwent sham surgery and received PBS treatment (Sham+PBS). (n=5/group).
as §3

ALK3 [5] = target: T1, ALK3; settings: kinase assay; cited from earlier work
[6] = delayed treatment, week 8, vs vehicle-treated mice examined 4 weeks after surgery

**Q.** Which “osteophyte volume (MicroCT)” value ([1]; applied after a 1-month delay) does the source give for `COc1cc(-c2cc(-c3ccc(N4CCNCC4)cc3)cnc2C)cc(OC)c1OC` [LDN-214117] here?
**A.** significant reduction in osteophyte volume

**Q.** And the “osteophyte volume (MicroCT)” value ([1]; treated immediately after surgery, compared to vehicle, week 8)?
**A.** reduced osteophyte volume

**Q.** And the “pain (Von Frey 50% paw withdrawal threshold)” value ([2]; week 6 after surgery, vs DMM control)?
**A.** did not exhibit an increase in pain

**Q.** What about the “pain (Von Frey) compared to mice that had received sham surgery” value ([2]; week 8) of the same compound?
**A.** no significant difference

**Q.** And the “articular cartilage damage, femoral surface” value [3, 6]?
**A.** less damage

**Q.** What about the “articular cartilage damage, tibial surface” value [3, 6] of the same compound?
**A.** less damage

**Q.** What about the “articular cartilage damage (OARSI scoring)” value ([3]; treatment beginning 4 weeks after DMM, examined 8 weeks after surgery, vs vehicle-treated mice at 8 weeks) of the same compound?
**A.** significantly less damage

**Q.** What about the “articular cartilage damage (SOFG staining, OARSI scoring)” value ([3]; week 8) of the same compound?
**A.** sufficient to prevent degradation of AC

**Q.** What about the “articular cartilage damage (SOFG staining, OARSI scoring)” value ([3]; week 8, listed as BMP-KI) of the same compound?
**A.** protection of articular cartilage

**Q.** And the “effect on ALK3 at the injected concentration” value (ALK3 [4])?
**A.** < 25 % IC50

**Q.** And the “impact on adult growth plate maintenance” value (adult growth plate)?
**A.** no obvious impact

**Q.** And the IC50 (ALK3 [5])?
**A.** 1.17 µM
